From the supplement of paper PMC6045584
± gives the standard deviation of the averaged measurements.

What was measured:
ERLOTINIB = compound: C#Cc1cccc(Nc2ncnc3cc(OCCOC)c(OCCOC)cc23)c1 [ERLOTINIB]; experiment: surviving fraction relative to DMSO-only wells; higher = less growth inhibition; settings: exposure time: 5 days
Method in brief: (§1)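 Continuous five-day exposure to inhibitors at 0.5, 1, 5, 10, 50, 100, 500 and 1000 nM started 24 hours after log-phase tumour cell lines were seeded at 250–500 cells per well in 384-well plates. Luminescence was read after 10 minutes at room temperature. Viability is given as surviving fraction, meaning CellTiter-Glo luminescence normalised to the median of DMSO-only wells.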

VINORELBINE = compound: CCC1=C[C@@H]2CN(C1)Cc1c([nH]c3ccccc13)[C@@](C(=O)OC)(c1cc3c(cc1OC)N(C)[C@H]1[C@@](O)(C(=O)OC)[C@H](OC(C)=O)[C@]4(CC)C=CCN5CC[C@]31[C@@H]54)C2 [VINORELBINE]; experiment: as above; settings: exposure time: 5 days
Method in brief: as §1

Row | Test System | surviving fraction (ERLOTINIB; 0.5 nM) | surviving fraction (ERLOTINIB; 1 nM) | surviving fraction (ERLOTINIB; 5 nM) | surviving fraction (ERLOTINIB; 10 nM) | surviving fraction (ERLOTINIB; 50 nM) | surviving fraction (ERLOTINIB; 100 nM) | surviving fraction (ERLOTINIB; 500 nM) | surviving fraction (ERLOTINIB; 1000 nM) | surviving fraction (VINORELBINE; 0.5 nM) | surviving fraction (VINORELBINE; 1 nM) | surviving fraction (VINORELBINE; 5 nM) | surviving fraction (VINORELBINE; 10 nM) | surviving fraction (VINORELBINE; 50 nM) | surviving fraction (VINORELBINE; 100 nM) | surviving fraction (VINORELBINE; 500 nM) | surviving fraction (VINORELBINE; 1000 nM)
1 | 22RV1 PROSTATE | 1.1 ± 0.11 | 1.01 ± 0.12 | 1.03 ± 0.048 | 1 ± 0.028 | 1.04 ± 0.072 | 0.956 ± 0.17 | 0.991 ± 0.18 | 1.08 ± 0.021 | 1.04 ± 0.039 | 1.01 ± 0.057 | 0.916 ± 0.13 | 0.655 ± 0.12 | 0.12 ± 0.028 | 0.0623 ± 0.0038 | 0.0587 ± 0.012 | 0.06367 ± 0.00058
2 | 93VU HEADNECK | 1.1 ± 0.058 | 1.04 ± 0.095 | 1.1 ± 0.067 | 1.04 ± 0.12 | 1.06 ± 0.051 | 0.97 ± 0.15 | 0.514 ± 0.066 | 0.416 ± 0.034 | 1.02 ± 0.11 | 1.02 ± 0.19 | 1.04 ± 0.034 | 1.05 ± 0.075 | 0.554 ± 0.011 | 0.292 ± 0.03 | 0.141 ± 0.015 | 0.145 ± 0.022
3 | 143B BONE |  | 1.11 ± 0.067 | 1.13 ± 0.067 |  | 1.15 ± 0.053 | 1.17 ± 0.067 | 1.19 ± 0.14 | 1.15 ± 0.16 | 1 ± 0.02 | 1.016 ± 0.0057 | 1.016 ± 0.0071 | 0.864 ± 0.024 | 0.229 ± 0.0071 | 0.1625 ± 0.00071 | 0.039 ± 0.0028 | 0.0345 ± 0.00071
4 | A549 LUNG |  | 1.06 ± 0.026 | 1.06 ± 0.027 | 1.056 ± 0.0021 | 1.05 ± 0.022 |  |  | 1.03 ± 0.029 | 0.982 ± 0.049 | 0.989 ± 0.049 | 0.979 ± 0.053 | 0.968 ± 0.045 | 0.461 ± 0.034 | 0.308 ± 0.023 | 0.228 ± 0.0085 | 0.274 ± 0.015
5 | ASKA SYNOVIAL | 1.12 ± 0.047 | 1.15 ± 0.07 | 1.18 ± 0.06 | 1.19 ± 0.036 |  | 1.15 ± 0.067 | 1.09 ± 0.033 | 0.987 ± 0.099 | 0.912 ± 0.086 | 0.846 ± 0.075 | 0.43 ± 0.029 | 0.306 ± 0.015 | 0.247 ± 0.026 | 0.229 ± 0.02 | 0.257 ± 0.03 | 0.334 ± 0.022
6 | BT20 BREAST | 1.22 ± 0.026 | 1.19 ± 0.11 | 1.19 ± 0.11 | 1.13 ± 0.069 | 1.08 ± 0.069 | 1.12 ± 0.034 | 1.03 ± 0.034 | 0.947 ± 0.081 | 1.16 ± 0.21 | 0.875 ± 0.22 | 0.973 ± 0.076 | 0.709 ± 0.18 | 0.0683 ± 0.025 | 0.055 ± 0.019 | 0.106 ± 0.029 | 0.09 ± 0.03
7 | BT549 BREAST | 0.973 ± 0.036 | 1.01 ± 0.15 | 1.06 ± 0.11 | 1.1 ± 0.12 | 1.19 ± 0.071 | 1.22 ± 0.047 | 1.13 ± 0.03 | 1.03 ± 0.069 | 1.13 ± 0.039 | 1.21 ± 0.15 | 0.934 ± 0.12 | 0.618 ± 0.099 | 0.146 ± 0.037 | 0.132 ± 0.023 | 0.154 ± 0.043 | 0.158 ± 0.018
8 | CADOES1 SOFT TISSUE | 0.854 ± 0.09 | 0.853 ± 0.033 | 0.882 ± 0.11 | 0.839 ± 0.11 | 0.783 ± 0.073 | 0.829 ± 0.057 |  | 0.842 ± 0.077 | 0.972 ± 0.19 | 0.882 ± 0.043 | 0.928 ± 0.12 | 0.84 ± 0.073 | 0.877 ± 0.12 | 0.825 ± 0.038 | 0.201 ± 0.013 | 0.0913 ± 0.0064
9 | CAL51 BREAST | 0.969 ± 0.04 | 0.993 ± 0.069 | 1.05 ± 0.067 | 1.02 ± 0.062 | 1.07 ± 0.045 | 1.07 ± 0.036 | 1.09 ± 0.059 | 1.061 ± 0.0043 | 0.926 ± 0.047 | 0.945 ± 0.016 | 0.736 ± 0.035 | 0.452 ± 0.011 | 0.0567 ± 0.0027 | 0.045 ± 0.0027 | 0.0317 ± 0.0015 | 0.0318 ± 0.0033
10 | CAL120 BREAST | 0.971 ± 0.033 | 0.964 ± 0.036 | 0.965 ± 0.041 | 0.963 ± 0.017 | 0.988 ± 0.012 | 0.976 ± 0.052 | 0.967 ± 0.035 | 0.958 ± 0.038 | 0.969 ± 0.032 | 0.9515 ± 0.0038 | 0.782 ± 0.015 | 0.623 ± 0.026 | 0.169 ± 0.017 | 0.157 ± 0.0098 | 0.154 ± 0.02 | 0.14 ± 0.0076
11 | CASKI CERVIX | 0.908 ± 0.099 | 0.856 ± 0.053 |  | 0.8153 ± 0.0021 | 0.717 ± 0.049 | 0.547 ± 0.031 | 0.336 ± 0.013 | 0.239 ± 0.018 | 0.919 ± 0.041 | 0.911 ± 0.046 | 0.702 ± 0.014 | 0.188 ± 0.027 | 0.0597 ± 0.0076 | 0.087 ± 0.005 | 0.106 ± 0.012 | 0.1 ± 0.0083
12 | CHLA90 AUTONOMIC GANGLIA | 1.01 ± 0.059 | 0.963 ± 0.12 |  | 0.94 ± 0.041 | 0.984 ± 0.09 | 0.948 ± 0.079 | 0.856 ± 0.057 | 0.88 ± 0.036 | 1.009 ± 0.01 | 1.05 ± 0.036 | 0.951 ± 0.058 | 0.768 ± 0.011 | 0.177 ± 0.023 | 0.105 ± 0.012 | 0.0883 ± 0.012 | 0.0917 ± 0.0061
13 | CME SYNOVIAL | 1.29 ± 0.069 | 1.29 ± 0.052 | 1.32 ± 0.091 | 1.33 ± 0.17 | 1.44 ± 0.17 | 1.36 ± 0.12 | 1.29 ± 0.17 | 1.16 ± 0.17 | 1.11 ± 0.17 | 1.09 ± 0.11 | 1.21 ± 0.11 | 1.08 ± 0.12 | 0.488 ± 0.098 | 0.355 ± 0.085 | 0.275 ± 0.039 | 0.333 ± 0.033
14 | COLO320DM LARGE INTESTINE | 1.17 ± 0.18 | 0.993 ± 0.074 | 1.06 ± 0.094 | 1.09 ± 0.12 | 1.155 ± 0.011 | 1.02 ± 0.078 | 1.04 ± 0.039 | 0.99 ± 0.032 | 1 ± 0.036 | 1.08 ± 0.059 | 1.06 ± 0.12 | 1.12 ± 0.088 | 1.09 ± 0.047 | 0.9883 ± 0.006 | 0.534 ± 0.022 | 0.293 ± 0.012
15 | DU4475 BREAST | 0.965 ± 0.051 | 0.972 ± 0.086 |  |  |  | 1.17 ± 0.027 | 1.15 ± 0.14 | 1.02 ± 0.033 | 0.973 ± 0.088 | 1.01 ± 0.025 | 1.01 ± 0.14 | 0.906 ± 0.095 | 0.403 ± 0.091 | 0.211 ± 0.027 | 0.0703 ± 0.016 | 0.051 ± 0.015
16 | H23 LUNG |  | 1.04 ± 0.038 | 0.998 ± 0.065 | 0.992 ± 0.055 | 0.774 ± 0.051 | 0.488 ± 0.016 | 0.349 ± 0.015 | 0.336 ± 0.015 | 1.03 ± 0.046 | 0.9937 ± 0.0096 | 1.04 ± 0.039 | 0.84 ± 0.014 | 0.205 ± 0.015 | 0.173 ± 0.011 | 0.22 ± 0.002 | 0.1743 ± 0.0015
17 | HCC38 BREAST | 1.16 ± 0.22 | 1.22 ± 0.14 | 1.48 ± 0.025 | 1.29 ± 0.15 | 1.54 ± 0.15 | 1.17 ± 0.13 | 1.19 ± 0.2 | 1.1 ± 0.16 | 1.19 ± 0.19 | 1.12 ± 0.3 | 1.24 ± 0.14 | 1.06 ± 0.12 | 0.223 ± 0.039 | 0.216 ± 0.029 | 0.334 ± 0.06 | 0.251 ± 0.0055
18 | HCC70 BREAST | 1.1 ± 0.094 |  | 1.15 ± 0.071 | 1.06 ± 0.097 | 1.03 ± 0.066 | 0.992 ± 0.022 | 1.03 ± 0.044 | 0.952 ± 0.096 | 1.04 ± 0.032 | 1.01 ± 0.014 | 0.937 ± 0.042 | 0.752 ± 0.029 | 0.108 ± 0.012 | 0.129 ± 0.013 | 0.131 ± 0.015 | 0.132 ± 0.02
19 | HCC78 LUNG | 0.768 ± 0.087 |  | 0.918 ± 0.11 | 1.02 ± 0.033 | 0.962 ± 0.18 |  | 0.767 ± 0.15 | 0.847 ± 0.1 | 0.958 ± 0.18 | 0.806 ± 0.26 | 0.877 ± 0.25 | 0.575 ± 0.15 | 0.0987 ± 0.045 | 0.094 ± 0.016 | 0.0637 ± 0.012 | 0.042 ± 0.011
20 | HCC202 BREAST | 1.37 ± 0.29 |  | 1.2 ± 0.2 | 1.2 ± 0.12 | 1.64 ± 0.29 | 1.32 ± 0.28 |  | 0.762 ± 0.15 | 1.25 ± 0.24 | 1.21 ± 0.12 | 0.946 ± 0.088 | 0.603 ± 0.14 | 0.383 ± 0.12 | 0.313 ± 0.06 | 0.234 ± 0.056 | 0.205 ± 0.033
21 | HCC1395 BREAST |  | 0.992 ± 0.02 | 1.33 ± 0.036 | 1.18 ± 0.14 |  | 1.28 ± 0.027 | 1.14 ± 0.042 | 1.19 ± 0.051 | 1.04 ± 0.21 | 1.09 ± 0.16 | 1.13 ± 0.077 | 1.11 ± 0.031 | 0.952 ± 0.083 | 0.727 ± 0.12 | 0.575 ± 0.16 | 0.467 ± 0.057
22 | HCC1806 BREAST | 1.04 ± 0.062 | 1.1 ± 0.067 | 1.13 ± 0.056 | 1.15 ± 0.061 | 1.2 ± 0.042 | 1.12 ± 0.037 | 0.656 ± 0.069 | 0.623 ± 0.025 | 0.976 ± 0.16 | 1.02 ± 0.075 | 1.01 ± 0.077 | 0.173 ± 0.14 | 0.0363 ± 0.0095 | 0.0347 ± 0.0038 | 0.042 ± 0.001 | 0.041 ± 0.0053
